One test addresses T1, N. gonorrhoeae PBP2 (Neisseria gonorrhoeae, UniProt P08149).
T1 construct: made in house
Briefly: Bocillin-FL fluorescence polarization competition binding assay, N. gonorrhoeae PBP2. The conditions noted are these: fluorescence polarization competition binding assay using Bocillin-FL; read-out: N. gonorrhoeae PBP2 Potency. The essentials:
(§1)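 Fluorescence polarization (ex 490/em 520 nm) competition of inhibitors against Bocillin-FL at 0.1 μM, read up to 60 min. Final PBP levels: E. coli PBP3 1.5 μM; A. baumannii PBP2 2.5 μM, PBP3 0.2 μM in Tris pH 8.0/NaCl/glycerol/Tween 20; N. gonorrhoeae PBP2 […] in Hepes pH 8.0/NaCl/glycerol. EC50 = concentration halving PBP-bound Bocillin-FL.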
In general terms: Polarisation of emitted light reports the rotation of a fluorescent probe.

The next test has as its target A. baumannii PBP1a (Acinetobacter baumannii, UniProt A0ABX6CK30). Briefly: Bocillin-FL fluorescence polarization competition binding assay, A. baumannii PBP1a. The conditions noted are these: fluorescence polarization competition binding assay using Bocillin-FL; column 1; read-out: A. baumannii PBP1a Potency.
Test [1] has as its system A. baumannii CDC-0045 producing TEM-1D, OXA-23, and OXA-69. In words: Broth microdilution MIC in iron-depleted CAMHB (IDM). In kind it is cell-based. As to conditions: Acinetobacter baumannii, read-out: Minimum Inhibitory Concentration, CDC-0045. On the technique in general: Broth dilution looks for growth in wells or tubes with falling amounts of substance.
The nature of test [2]: Bocillin-FL fluorescence polarization competition binding assay, A. baumannii PBP3. As to conditions: fluorescence polarization competition binding assay using Bocillin-FL; column 3; read-out: 4. baumannii PBP1a Potency. The essentials:
as §1

For another test, the system named is P. aeruginosa CDC-0110. Briefly: Broth microdilution MIC in iron-depleted CAMHB (IDM). In kind it is cell-based. The conditions noted are these: Pseudomonas aeruginosa, CDC0110, read-out: Minimum Inhibitory Concentration, P. aeruginosa CDC-0110. The essentials: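 CLSI broth microdilution in iron-depleted cation-adjusted Mueller Hinton broth (Chelex-treated, Ca, Mg, Zn restored, pH 7.3), inoculum 2-8×10^5 CFU/mL, 2-fold compound dilutions. Pseudomonas plates incubated 16-20 h at 37 °C; MIC read visually as lowest concentration without growth.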

Test [3] relates to A. baumannii IL123 (ABΔ3-ARAEcPore). The test is described as above. It counts as cell-based. As to conditions: Acinetobacter baumannii, read-out: Minimum Inhibitory Concentration, IL-2123. Put shortly: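 IDM = CAMHB stripped with Chelex 100 resin 2 h, supplemented CaCl2 82.5 mg/L, MgCl2 94.1 mg/L, ZnSO4 10 μM, pH 7.3. 2-fold compound dilutions; 2-8×10^5 CFU/mL; 37° C; Acinetobacter 20-24 h, Pseudomonas 16-20 h. Visual MIC.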

Structures are written as SMILES. In brackets after ≈: the same amount, converted by molar mass.

Chain of A. baumannii PBP1a (A0ABX6CK30 entry or part of it): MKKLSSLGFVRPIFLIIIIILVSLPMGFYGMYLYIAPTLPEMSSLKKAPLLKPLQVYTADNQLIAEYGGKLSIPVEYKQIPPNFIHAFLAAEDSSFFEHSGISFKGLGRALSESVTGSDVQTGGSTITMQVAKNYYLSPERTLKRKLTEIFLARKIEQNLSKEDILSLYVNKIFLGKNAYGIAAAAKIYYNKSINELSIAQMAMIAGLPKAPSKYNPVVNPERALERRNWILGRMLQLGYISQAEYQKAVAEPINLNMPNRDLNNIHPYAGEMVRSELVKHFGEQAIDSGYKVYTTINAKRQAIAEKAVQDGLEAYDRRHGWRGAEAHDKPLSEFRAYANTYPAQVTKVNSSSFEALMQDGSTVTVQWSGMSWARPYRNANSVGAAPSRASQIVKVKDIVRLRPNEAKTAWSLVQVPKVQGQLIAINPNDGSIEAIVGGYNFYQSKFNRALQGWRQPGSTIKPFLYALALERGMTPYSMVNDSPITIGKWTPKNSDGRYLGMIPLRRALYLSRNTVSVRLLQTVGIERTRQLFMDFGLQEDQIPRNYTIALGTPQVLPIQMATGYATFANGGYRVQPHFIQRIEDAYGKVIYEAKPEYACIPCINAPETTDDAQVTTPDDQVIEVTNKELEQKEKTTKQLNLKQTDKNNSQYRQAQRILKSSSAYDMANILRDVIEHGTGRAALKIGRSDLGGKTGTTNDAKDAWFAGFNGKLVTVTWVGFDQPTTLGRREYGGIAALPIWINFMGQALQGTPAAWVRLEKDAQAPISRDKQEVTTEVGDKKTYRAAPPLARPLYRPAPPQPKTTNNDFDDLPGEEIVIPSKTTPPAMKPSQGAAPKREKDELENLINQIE
T1 sequence (P08149 whole entry): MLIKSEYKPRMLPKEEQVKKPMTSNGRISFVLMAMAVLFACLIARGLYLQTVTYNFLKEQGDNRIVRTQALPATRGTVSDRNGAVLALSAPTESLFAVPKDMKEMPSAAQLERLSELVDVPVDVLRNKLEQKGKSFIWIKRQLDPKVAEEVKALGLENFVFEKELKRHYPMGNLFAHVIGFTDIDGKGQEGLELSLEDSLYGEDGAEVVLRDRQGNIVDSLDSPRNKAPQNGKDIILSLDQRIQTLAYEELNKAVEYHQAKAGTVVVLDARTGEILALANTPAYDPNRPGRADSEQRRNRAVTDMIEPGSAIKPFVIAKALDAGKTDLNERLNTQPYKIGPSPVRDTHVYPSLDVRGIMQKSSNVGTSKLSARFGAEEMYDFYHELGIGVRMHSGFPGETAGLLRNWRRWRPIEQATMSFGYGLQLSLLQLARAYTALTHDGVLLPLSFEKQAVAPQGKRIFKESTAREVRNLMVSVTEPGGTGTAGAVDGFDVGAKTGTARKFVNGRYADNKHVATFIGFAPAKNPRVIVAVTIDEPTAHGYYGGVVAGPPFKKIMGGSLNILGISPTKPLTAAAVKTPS

Turning to `CS(=O)(=O)N1CCN(C(=O)N[C@@H](C(=O)N[C@H]2Cc3ccc(F)c(C(=O)O)c3OB2O)c2cc(F)c(O)c(O)c2Cl)C1=O` (single isomer, unassigned) [Example 189], the EC50 at N. gonorrhoeae PBP2 was 10 to 30 µM; at A. baumannii PBP1a it was over 100 µM; in test [2], 10 to 30 µM. For the same compound, the MIC lay in the range of 2 to 4 mg/L (≈ 3.16 to 6.32 µM) in test [1] and 0.5 to 1 mg/L (≈ 0.79 to 1.58 µM) in the test with P. aeruginosa CDC-0110.
Regarding `O=C(NCCCN1CCN(C(=O)NC(C(=O)N[C@H]2Cc3cccc(C(=O)O)c3OB2O)c2ncc(O)cc2F)C(=O)C1=O)c1ccc(O)c(O)c1Cl` (stereo partly drawn) [Example 1, (3R)-3-(2-(4-(3-(2-chloro-3,4-dihydroxybenzamido)propyl)-2,3-dioxopiperazine-1-carboxamido)-2-(3-fluoro-5-hydroxypyridin-2-yl)acetamido)-2-hydroxy-3,4-dihydro-2H-benzo[e][1,2]oxaborinine-8-carboxylic acid], the EC50 at A. baumannii PBP1a lay in the range of 10 to 30 µM. The MIC in test [3] lay in the range of 0.5 to 1 mg/L (≈ 0.673 to 1.35 µM).
In the case of `O=C(NCCCN1CCN(C(=O)NC(C(=O)N[C@H]2Cc3ccc(F)c(C(=O)O)c3OB2O)c2ncc(O)cc2F)C(=O)C1=O)c1ccc(O)c(O)c1Cl` (stereo partly drawn) [Example 3, (3R)-3-(2-(4-(3-(2-chloro-3,4-dihydroxybenzamido)propyl)-2,3-dioxopiperazine-1-carboxamido)-2-(3-fluoro-5-hydroxypyridin-2-yl)acetamido)-7-fluoro-2-hydroxy-3,4-dihydro-2H-benzo[e][1,2]oxaborinine-8-carboxylic acid], the figures for the EC50 (on A. baumannii PBP1a; in test [2]) were 30 to 100 µM and under 10 µM, respectively. Moreover, the MIC in test [1] fell in the range of 32 to 64 mg/L (≈ 42.1 to 84.1 µM); in the test with P. aeruginosa CDC-0110 it was 2 to 4 mg/L (≈ 2.63 to 5.26 µM).
Consider `Nc1nc(C(NC(=O)N2CCN(CCNC(=O)c3ccc(O)c(O)c3Cl)C(=O)C2=O)C(=O)N[C@H]2Cc3ccc(F)c(C(=O)O)c3OB2O)c(F)s1` (stereo partly drawn) [Example 4, (3R)-3-(2-(2-amino-5-fluorothiazol-4-yl)-2-(4-(2-(2-chloro-3,4-dihydroxybenzamido)ethyl)-2,3-dioxopiperazine-1-carboxamido)acetamido)-7-fluoro-2-hydroxy-3,4-dihydro-2H-benzo[e][1,2]oxaborinine-8-carboxylic acid], for which the MIC was 2 to 4 mg/L (≈ 2.66 to 5.32 µM) in test [1], 0.25 mg/L (≈ 0.333 µM) in the test with P. aeruginosa CDC-0110 and 32 to 64 mg/L (≈ 42.6 to 85.1 µM) in test [3].
In the case of `O=C(NCCN1CCN(C(=O)NC(C(=O)N[C@H]2Cc3ccc(F)c(C(=O)O)c3OB2O)c2ncc(O)cc2F)C(=O)C1=O)c1c(F)cc(O)c(O)c1Cl` (stereo partly drawn) [Example 5, (3R)-3-(2-(4-(2-(2-chloro-6-fluoro-3,4-dihydroxybenzamido)ethyl)-2,3-dioxopiperazine-1-carboxamido)-2-(3-fluoro-5-hydroxypyridin-2-yl)acetamido)-7-fluoro-2-hydroxy-3,4-dihydro-2H-benzo[e][1,2]oxaborinine-8-carboxylic acid], the figures for the EC50 (at A. baumannii PBP1a; in test [2]) were 10 to 30 µM and under 10 µM, respectively. Moreover, the MIC in test [1] is 2 to 4 mg/L (≈ 2.61 to 5.23 µM); with P. aeruginosa CDC-0110 it was 0.25 mg/L (≈ 0.327 µM); in test [3], 2 to 4 mg/L (≈ 2.61 to 5.23 µM).
`Nc1nc(/C(=N/OC[C@H](NC(=O)c2ccc(O)c(O)c2Cl)C(=O)O)C(=O)N[C@H]2Cc3cccc(C(=O)O)c3OB2O)cs1` [Example 6, (R)-3-((Z)-2-(2-aminothiazol-4-yl)-2-(((S)-2-carboxy-2-(2-chloro-3,4-dihydroxybenzamido)ethoxy)imino)acetamido)-2-hydroxy-3,4-dihydro-2H-benzo[e][1,2]oxaborinine-8-carboxylic acid]: the MIC was in the range of 32 to 64 mg/L (≈ 50.5 to 101 µM) in test [1], 2 to 4 mg/L (≈ 3.16 to 6.31 µM) in the test on P. aeruginosa CDC-0110 and 32 to 64 mg/L (≈ 50.5 to 101 µM) in test [3]. Besides, the EC50 in test [2] is over 100 µM.
With `NCCCN1CCN(C(=O)N[C@@H](C(=O)N[C@H]2Cc3cc(Cl)c(F)c(C(=O)O)c3OB2O)c2c(F)cc(O)c(O)c2Cl)C(=O)C1=O` [Example 190, (R)-3-((R)-2-(4-(3-aminopropyl)-2,3-dioxopiperazine-1-carboxamido)-2-(2-chloro-6-fluoro-3,4-dihydroxyphenyl)acetamido)-6-chloro-7-fluoro-2-hydroxy-3,4-dihydro-2H-benzo[e][1,2]oxaborinine-8-carboxylic acid], the EC50 (at N. gonorrhoeae PBP2; at A. baumannii PBP1a; in test [2]) was over 100 µM each time. Moreover, the MIC in test [1] was over 128 mg/L; in the test with P. aeruginosa CDC-0110 it was 2 to 4 mg/L (≈ 2.97 to 5.93 µM).
On to `CCN1CCN(C(=O)N[C@@H](C(=O)N[C@H]2Cc3cc(Cl)c(F)c(C(=O)O)c3OB2O)c2c(F)cc(O)c(O)c2Cl)C(=O)C1=O` [Example 191, (R)-6-chloro-3-((R)-2-(2-chloro-6-fluoro-3,4-dihydroxyphenyl)-2-(4-ethyl-2,3-dioxopiperazine-1-carboxamido)acetamido)-7-fluoro-2-hydroxy-3,4-dihydro-2H-benzo[e][1,2]oxaborinine-8-carboxylic acid], for which the EC50 was 30 to 100 µM at N. gonorrhoeae PBP2, over 100 µM on A. baumannii PBP1a and 30 to 100 µM in test [2]. For the same compound, the figures for the MIC (in test [1]; in the test on P. aeruginosa CDC-0110) were over 128 mg/L and 2 to 4 mg/L (≈ 3.1 to 6.2 µM), respectively.

(Values after patent publication US20230114728A1 (Venatorx Pharmaceuticals, Inc., priority 2019, published 2023).)
